Results on two compounds are retold here after patent US20250221410A1, “SUBSTITUTED 2-C-AZINES AND SALTS THEREOF, AND USE THEREOF AS HERBICIDAL ACTIVE SUBSTANCES” (BAYER AKTIENGESELLSCHAFT, priority 2022, published 2025).

Format in all cases: in vivo
For assay [1], the system named is MATIN: Matricaria inodora. The assay can be described thus: Pre-emergence herbicide efficacy at 1280 g/ha, MATIN. The settings on record: visual scoring after about 3 weeks vs untreated controls. Summed up: (§1)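 Seeds sown in sandy loam in pots and covered; compounds as WP or EC applied to covering soil surface as aqueous suspension/emulsion with 0.5% additive at 600 L/ha water. Greenhouse growth ~3 weeks, then visual % efficacy vs untreated controls (100% = plants dead, 0% = like control).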

Assay [2] relates to VERPE: Veronica persica. Briefly: Pre-emergence herbicide efficacy at 1280 g/ha, VERPE. To be noted: visual scoring vs untreated controls. Summed up: as §1
The test system of assay [3] is ECHCG: Echinochloa crus-galli. Briefly: Pre-emergence herbicide efficacy at 1280 g/ha, ECHCG. The settings on record: visual scoring after about 3 weeks vs untreated controls. The method in brief: as §1
The subject of assay [4] is STEME: Stellaria media. The assay can be described thus: Post-emergence herbicidal efficacy at 1280 g/ha, STEME. To be noted: visual rating about 3 weeks after treatment vs untreated controls. The method in brief:
(§2)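 Read-out is visual percent activity relative to untreated controls (100% = plants died, 0% = no effect), scored about 3 weeks after treatment. Application was post-emergence at the one-leaf stage in the greenhouse, as WP or EC in water with 0.5% additive at 600 L/ha.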

Assay [5] concerns STEME: Stellaria media. The assay can be described thus: Pre-emergence herbicide efficacy at 1280 g/ha, STEME. The settings on record: visual scoring vs untreated controls. Summed up:
as §1

The subject of assay [6] is POAAN: Poa annua. The assay can be described thus: Pre-emergence herbicide efficacy at 1280 g/ha, POAAN. To be noted: visual scoring after about 3 weeks vs untreated controls. Summed up: as §1
For assay [7], the system named is AMARE: Amaranthus retroflexus. The assay can be described thus: Pre-emergence herbicide efficacy at 1280 g/ha, AMARE. The settings on record: visual scoring after about 3 weeks vs untreated controls. The method in brief: as §1
The test system of assay [8] is ABUTH: Abutilon theophrasti. Briefly: Post-emergence herbicidal efficacy at 1280 g/ha, ABUTH. The settings on record: rated visually after about 3 weeks vs untreated controls, 100% = plants have died, 0% = like control plants. The method in brief: as §2
In assay [9] the test system is DIGSA: Digitaria sanguinalis. Briefly: Pre-emergence herbicide efficacy at 1280 g/ha, DIGSA. To be noted: visual scoring after about 3 weeks vs untreated controls. The method in brief:
as §1

The subject of assay [10] is MATIN: Matricaria inodora. The assay can be described thus: Post-emergence herbicidal efficacy at 1280 g/ha, MATIN. The settings on record: visual rating about 3 weeks after treatment vs untreated controls. The method, then: Seeds of mono- and dicotyledonous weed plants were placed in plastic pots in sandy loam soil (doubly sown with in each case one species of mono- or dicotyledonous weed plants per pot), covered with soil and cultivated in a greenhouse under controlled growth conditions. 2 to 3 weeks after sowing, the test plants were treated at the one-leaf stage. The compounds of the invention, formulated in the form of wettable powders (WP) or as emulsion concentrates (EC), were applied to the green parts of the plants as aqueous suspension or emulsion with addition of 0.5% additive at a water application rate equivalent to 600 litres per hectare. After the test plants had been kept in the greenhouse under optimum growth conditions for about 3 weeks, the activity of the preparations was rated visually in comparison to untreated controls. For example, 100% activity=the plants have died, 0% activity=like control plants. Tables A1 to A12 below show the effects of selected compounds of the general formula (I) according to Table 1 on various harmful plants and at an application rate corresponding to 1280 g/ha, which were obtained by the trial procedure specified above.

Assay [11] deals with AMARE: Amaranthus retroflexus. Briefly: Post-emergence herbicidal efficacy at 1280 g/ha, AMARE. The settings on record: rated visually after about 3 weeks vs untreated controls, 100% = plants have died, 0% = like control plants. Summed up: as §2
Assay [12] has as its system SETVI: Setaria viridis. Briefly: Pre-emergence herbicide efficacy at 1280 g/ha, SETVI. The settings on record: visual scoring vs untreated controls. The method in brief: as §1
For assay [13], the system named is ABUTH: Abutilon theophrasti. The assay can be described thus: Pre-emergence herbicide efficacy at 1280 g/ha, ABUTH. The settings on record: visual scoring after about 3 weeks vs untreated controls. Summed up: as §1
Assay [14] deals with KCHSC: Kochia scoparia. Briefly: Pre-emergence herbicide efficacy at 1280 g/ha, KCHSC. The settings on record: visual scoring after about 3 weeks vs untreated controls. The method in brief:
as §1

In assay [15] the test system is VERPE: Veronica persica. Briefly: Post-emergence herbicidal efficacy at 1280 g/ha, VERPE. The settings on record: visual rating about 3 weeks after treatment vs untreated controls. The method in brief: as §2
Assay [16] relates to SETVI: Setaria viridis. The assay can be described thus: Post-emergence herbicidal efficacy at 1280 g/ha, SETVI. The settings on record: visual rating about 3 weeks after treatment vs untreated controls. Summed up:
as §2

For assay [17], the system named is ECHCG: Echinochloa crus-galli. The assay can be described thus: Post-emergence herbicidal efficacy at 1280 g/ha, ECHCG. To be noted: rated visually after about 3 weeks vs untreated controls, 100% = plants have died, 0% = like control plants. Summed up: as §2
The next assay deals with POLCO. The assay can be described thus: Pre-emergence herbicide efficacy at 80 g/ha, POLCO. The settings on record: Polygonum convolvulus, scored visually after about 3 weeks. The method in brief:
(§3)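 Weed seeds sown in pots and covered with soil; compounds formulated as WP or EC were sprayed onto the soil surface as aqueous suspension/emulsion with 0.5% additive at 600 l/ha water. Pots kept in greenhouse; efficacy scored visually after about 3 weeks versus untreated controls (0% = like control, 100% = plants dead).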

In assay [18] the test system is AMARE: Amaranthus retroflexus. The assay can be described thus: Post-emergence herbicidal efficacy at 80 g/ha, AMARE. The settings on record: visual rating about 3 weeks after treatment vs untreated controls. The method in brief: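 Activity is a visual score relative to untreated plants, taken about 3 weeks after treatment, where 100% means plant death and 0% means no difference from control. Weeds in sandy loam were sprayed at the one-leaf stage with an aqueous WP or EC preparation carrying 0.5% additive at 600 l/ha.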

In assay [19] the test system is VIOTR: Viola tricolor. The assay can be described thus: Post-emergence herbicidal efficacy at 80 g/ha, VIOTR. To be noted: visual rating about 3 weeks after treatment vs untreated controls. The method, then: Seeds of monocotyledonous and dicotyledonous weeds and crop plants were placed in sandy loam in plastic or organic planting pots, covered with soil and cultivated in a greenhouse under controlled growth conditions. 2 to 3 weeks after sowing, the test plants were treated at the one-leaf stage. The compounds of the invention, formulated in the form of wettable powders (WP) or as emulsion concentrates (EC), were then sprayed onto the green parts of the plants as aqueous suspension or emulsion with addition of 0.5% additive at a water application rate of 600 l/ha (converted). After the test plants had been kept in the greenhouse under optimum growth conditions for about 3 weeks, the activity of the preparations was rated visually in comparison to untreated controls. For example, 100% activity=the plants have died, 0% activity=like control plants. Tables B1 to B10 below show the effects of selected compounds of the general formula (I) according to Table 1 on various harmful plants and an application rate corresponding to 80 g/ha, which were obtained by the experimental procedure mentioned above.

Assay [20] relates to KCHSC: Kochia scoparia. The assay can be described thus: Post-emergence herbicidal efficacy at 1280 g/ha, KCHSC. The settings on record: visual rating about 3 weeks after treatment vs untreated controls. The method in brief:
as §2

Assay [21] deals with DIGSA: Digitaria sanguinalis. The assay can be described thus: Post-emergence herbicidal efficacy at 1280 g/ha, DIGSA. To be noted: rated visually after about 3 weeks vs untreated controls, 100% = plants have died, 0% = like control plants. Summed up: as §2
Assay [22] deals with VIOTR: Viola tricolor. Briefly: Pre-emergence herbicide efficacy at 80 g/ha, VIOTR. The settings on record: scored visually after about 3 weeks. The source says: Seeds of monocotyledonous and dicotyledonous weed plants and crop plants were placed in plastic or organic planting pots and covered with soil. The compounds of the invention, formulated in the form of wettable powders (WP) or as emulsion concentrates (EC), were then applied to the surface of the covering soil as aqueous suspension or emulsion with addition of 0.5% additive at a water application rate equivalent to 600 l/ha. After the treatment, the pots were placed in a greenhouse and kept under good growth conditions for the test plants. After about 3 weeks, the efficacy of the preparations was scored visually in comparison with untreated controls as percentages. For example, 100% activity=the plants have died, 0% activity=like control plants. Tables D1 to D12 below show the effects of selected compounds of the general formula (I) according to Table 1 on various harmful plants and an application rate corresponding to 80 g/ha, which were obtained by the experimental procedure mentioned above.

In assay [23] the test system is POAAN: Poa annua. The assay can be described thus: Post-emergence herbicidal efficacy at 1280 g/ha, POAAN. To be noted: visual rating about 3 weeks after treatment vs untreated controls. The method in brief:
as §2

Assay [24] has as its system AMARE: Amaranthus retroflexus. Briefly: Pre-emergence herbicide efficacy at 80 g/ha, AMARE. To be noted: scored visually after about 3 weeks. Summed up: as §3

As for `Fc1cnc(Cc2ccccc2Oc2ncc(Cl)cn2)nc1` [Example 1-70], in assay [1], the “Pre-emergence efficacy against MATIN” value amounted to 100%. For the same compound, in the assay with VERPE: Veronica persica [2], the “Pre-emergence efficacy against VERPE in %” value is reported as 90%. The “Pre-emergence efficacy against ECHCG” value in assay [3] was 90%. The “Post-emergence efficacy against STEME” value with STEME: Stellaria media [4] is 90%. Also, in the assay on STEME: Stellaria media [5], the “Pre-emergence efficacy against STEME in %” value was 100%. Further, the “Pre-emergence efficacy against POAAN” value in the assay with POAAN: Poa annua [6] is listed as 90%. Further, the “Pre-emergence efficacy against AMARE” value in assay [7] came out at 100%. Further, the “Post-emergence efficacy at 1280 g/ha against ABUTH in %” value in assay [8] was found to be 100%. In assay [9], the “Pre-emergence efficacy against DIGSA” value came to 100%. In addition, the “Post-emergence efficacy against MATIN” value in [10] came out at 90%. In addition, in assay [11], the “Post-emergence efficacy at 1280 g/ha against AMARE in %” value was 90%. In addition, in the assay on SETVI: Setaria viridis [12], the “Pre-emergence efficacy against SETVI in %” value worked out at 100%. For the same compound, the “Pre-emergence efficacy against ABUTH” value in [13] is listed as 90%. Moreover, the “Pre-emergence efficacy against KCHSC” value in the assay on KCHSC: Kochia scoparia [14] worked out at 100%. Also, the “Post-emergence efficacy against VERPE” value with VERPE: Veronica persica [15] was determined as 90%.

Turning to `N#Cc1cccc(Cc2ncc(F)cn2)c1-n1cc(C(F)(F)F)cn1` [Example 1-131], in assay [1], the “Pre-emergence efficacy against MATIN” value was determined as 100%. The “Pre-emergence efficacy against VERPE in %” value in the assay with VERPE: Veronica persica [2] amounted to 100%. Moreover, the “Post-emergence efficacy against SETVI” value in the assay on SETVI: Setaria viridis [16] stood at 90%. In assay [17], the “Post-emergence efficacy at 1280 g/ha against ECHCG in %” value came out at 100%. Also, the “Pre-emergence efficacy against ECHCG” value in assay [3] worked out at 100%. The “Post-emergence efficacy against STEME” value in the assay with STEME: Stellaria media [4] came to 100%. For the same compound, the “Pre-emergence efficacy against STEME in %” value in the assay with STEME: Stellaria media [5] came out at 100%. Besides, the “Pre-emergence efficacy against POAAN” value with POAAN: Poa annua [6] is reported as 90%. Further, the “Pre-emergence efficacy against POLCO in %” value in the assay on POLCO came to 80%. Moreover, in [18], the “Post-emergence efficacy against AMARE” value is given as 100%. In addition, the “Post-emergence efficacy against VIOTR” value in the assay with VIOTR: Viola tricolor [19] was determined as 90%. For the same compound, the “Pre-emergence efficacy against AMARE” value in [7] was 100%. Also, the “Post-emergence efficacy against KCHSC” value with KCHSC: Kochia scoparia [20] is 100%. The “Post-emergence efficacy at 1280 g/ha against ABUTH in %” value in assay [8] is reported as 100%. Further, the “Pre-emergence efficacy against DIGSA” value in assay [9] came out at 100%. Moreover, the “Post-emergence efficacy against MATIN” value in assay [10] was found to be 90%. Moreover, the “Post-emergence efficacy at 1280 g/ha against AMARE in %” value in assay [11] is given as 100%. The “Post-emergence efficacy at 1280 g/ha against DIGSA in %” value in assay [21] is listed as 90%. Besides, in the assay with SETVI: Setaria viridis [12], the “Pre-emergence efficacy against SETVI in %” value is 100%. The “Pre-emergence efficacy against VIOTR in %” value in the assay with VIOTR: Viola tricolor [22] came out at 90%. In the assay with POAAN: Poa annua [23], the “Post-emergence efficacy against POAAN” value is reported as 100%. Moreover, the “Pre-emergence efficacy against ABUTH” value in assay [13] was determined as 100%. In assay [24], the “Pre-emergence efficacy against AMARE in %” value is 100%. For the same compound, in the assay with KCHSC: Kochia scoparia [14], the “Pre-emergence efficacy against KCHSC” value turned out to be 100%. In addition, in the assay with VERPE: Veronica persica [15], the “Post-emergence efficacy against VERPE” value was determined as 100%.
